Patent publication US20260207605A1, “KRAS G12D INHIBITORS AND USES THEREOF” (Abbisko Therapeutics Co., Ltd., priority 2022, published 2026)
Read-outs that look alike come from different tables or passages of the source.

Key:
KRAS^G12D/cRAF = KRAS^G12D/cRAF (Homo sapiens, UniProt P01116, G12D); assay: KRAS G12D/cRAF binding test (Alphalisa); settings: His-tagged KRAS G12D with GMPPNP, GST-tagged cRAF
HPAC = assay: Anti-proliferative 2D CTG assay, HPAC; type: cell-based; settings: Homo sapiens, 96 h, HPAC cells, 4 days incubation, read-out: HPAC cell IC50
Experimental: (§1) 1.1 Day 0 Cell Culture and Plating
(§2) Cells in a logarithmic growth phase were harvested and the cells were counted by using a […]. Cell viability was tested by using a trypan blue exclusion method to ensure that cell viability was above 90%. The cell concentration was adjusted to the desired final density, and 90 μL of cell suspension was added to a 96-well plate, then the cells were incubated overnight at 37° C., 5% CO2 and 95% humidity.
(§3) 10 μL PBS was added to each well of the TO plate containing cells. The CTG reagent was thawed and the plate was equilibrated to room temperature for 30 minutes. The CTG solution of 50 µL/well was added to each well. The cells were lysed by shaking on an orbital shaker for 5 minutes. The plate was left at room temperature for 20 minutes to stabilize the luminescence signal. The TO fluorescence signal value was read.
(§4) From the 10 mM stock solution, with a ratio of 1:5, 9-point serial dilutions were performed. The 10× medium containing the compound was transferred into corresponding wells of the 96 wells. The final maximum compound concentration was […] and the final DMSO concentration was 0.1%. The 96-well plate was placed in a 37° C. incubator and incubated for 4 days.
(§5) 50 μL/well of detection reagent (CTG) was added to the cells, and the signal was read in an Envision machine.
(§6) The percent inhibition (%) at each compound concentration was calculated from the signal in the HPE and ZPE control wells and the fluorescence signal in the individual compound wells included in each assay plate. […] The compound concentration required for inhibitory concentration at 50% (IC50) was determined using a four-parameter logarithmic dose-response equation by testing the concentration of the compound and the inhibition percentage value. The endpoint value (IC50) of the reference compound was assessed in each experiment as a quality control measure. If the endpoint value is within three times the expected value, the experiment may be considered acceptable.

LS513 = assay: Anti-proliferative 2D CTG assay, LS513; type: cell-based; settings: Homo sapiens, LS-513, 96 h, LS513 cells, 4 days incubation, read-out: LS513 cell IC50
Experimental: as §1, §2, §3, §4, §5, §6

AsPC-1 = assay: Anti-proliferative 2D CTG assay, AsPC-1; type: cell-based; settings: AsPC-1 cells, 4 days incubation, read-out: AsPC-1 cell IC50
AGS = assay: Anti-proliferative 2D CTG assay, AGS; type: cell-based; settings: AGS cells, 4 days incubation, read-out: AGS cell IC50
[1] = Pharmacokinetic experiment in mice (single PO or IV administration); settings: male, ICR, mouse, plasma
in vivo = settings: male, ICR, mouse

KRAS^G12D/cRAF, sequence (P01116 1-188 isoform P01116-2 G12D): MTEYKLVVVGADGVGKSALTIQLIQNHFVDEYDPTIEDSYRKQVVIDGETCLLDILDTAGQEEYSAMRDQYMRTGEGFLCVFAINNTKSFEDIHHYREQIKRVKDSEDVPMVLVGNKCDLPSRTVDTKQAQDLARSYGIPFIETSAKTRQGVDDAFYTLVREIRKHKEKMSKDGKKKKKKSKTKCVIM

SMILES | IC50 (KRAS^G12D/cRAF) [nM] | IC50 (HPAC) [nM] | IC50 (LS513) [nM] | IC50 (AsPC-1; Homo sapiens, ASPC1, 96 h) [nM] | IC50 (AGS; Homo sapiens, AGS, 96 h) [nM] | AUC ([1]; iv, 2 mg/kg) [ng·h/mL] | Cmax ([1]; iv, 2 mg/kg) [ng/mL] | half-life ([1]; iv, 2 mg/kg) [h] | AUC ([1]; po, 10 mg/kg) [ng·h/mL] | Cmax ([1]; po, 10 mg/kg) [ng/mL] | bioavailability ([1]; po, 10 mg/kg) [%] | half-life ([1]; po, 10 mg/kg) [h] | further results
[2H]C([2H])([2H])C([2H])([2H])[C@@]12CC[C@@H](CN(c3nc(OC[C@@]45CCCN4CC(=C(F)F)C5)nc4c(F)c(-c5cc(O)cc6ccc(F)c(C#C)c56)ncc34)C1)N2 [Example 47, 4-(2-(((S)-2-(difluoromethylene)tetrahydro-1H-pyrrolizin-7a (5H)-yl)methoxy)-4-((1R,5S)-1-(ethyl-d5)-3,8-diazabicyclo [3.2.1]octan-3-yl)-8-fluoropyrido [4,3-d]pyrimidin-7-yl)-5-ethynyl-6-fluoronaphthalen-2-ol] | 14.6 | 23.1 | 23.9 | 46.3 | 4.8 |  |  |  |  |  |  |  | 
[2H]C([2H])([2H])OC[C@@]12CC[C@@H](CN(c3nc(OC[C@@]45CCCN4C/C(=C\F)C5)nc4c(F)c(-c5cc(O)cc6ccc(F)c(C#C)c56)ncc34)C1)N2 [Example 62, 5-ethynyl-6-fluoro-4-(8-fluoro-2-(((S,Z)-2-(fluoromethylene)tetrahydro-1H-pyrrolizin-7a(5H)-yl)methoxy)-4-((1R,5S)-1-((methoxy-d3)methyl)-3,8-diazabicyclo[3.2.1]octan-3-yl)pyrido[4,3-d]pyrimidin-7-yl) naphthalen-2-ol] | 5.1 | 9.7 | 4.9 |  |  | 849 | 764 | 4.9 | 619 | 224 | 14.6 | 5.7 | IC50 (AsPC-1): 19.8 nM; IC50 (AGS): 1.5 nM
C#Cc1c(F)ccc2cc(O)cc(-c3ncc4c(N5C[C@@H]6CC[C@](C7CC7)(C5)N6)nc(OC[C@@]56CCCN5C/C(=C\F)C6)nc4c3F)c12 [Example 68, 4-(4-(1-cyclopropyl-3,8-diazabicyclo[3.2.1]octan-3-yl)-8-fluoro-2-(((S,Z)-2-(fluoromethylene)tetrahydro-1H-pyrrolizin-7a (5H)-yl)methoxy)pyrido[4,3-d]pyrimidin-7-yl)-5-ethynyl-6-fluoronaphthalen-2-ol] | 40.1 | 83.2 | 59.8 | 190 | 33.4 | 813 | 887 | 6.3 | 1070 | 300 | 26.4 | 5.6 | 
[2H]C([2H])([2H])C([2H])([2H])[C@@]12CC[C@@H](CN(c3nc(OC[C@@]45CCCN4C/C(=C\F)C5)nc4c(F)c(-c5cc(O)cc6ccc(F)c(C#C)c56)ncc34)C1)N2 [Example 71, 4-(4-((1R,5S)-1-(ethyl-d5)-3,8-diazabicyclo[3.2.1]octan-3-yl)-8-fluoro-2-(((S,Z)-2-(fluoromethylene)tetrahydro-1H-pyrrolizin-7a(5H)-yl)methoxy)pyrido[4,3-d]pyrimidin-7-yl)-5-ethynyl-6-fluoronaphthalen-2-ol] | 5.6 | 2.3 | 4.1 | 16.7 | 1.4 | 497 | 638 | 6.6 | 1020 | 461 | 41.1 | 4.9 | 
[2H]C([2H])([2H])C([2H])([2H])[C@@]12CC[C@@H](CN(c3nc(OC[C@@]45CCCN4C/C(=C\F)C5)nc4c(F)c(-c5cc(N)cc6ccc(F)c(C#C)c56)ncc34)C1)N2 [Example 137, 4-(4-((1R,5S)-1-(ethyl-d5)-3,8-diazabicyclo[3.2.1]octan-3-yl)-8-fluoro-2-(((S,Z)-2-(fluoromethylene)tetrahydro-1H-pyrrolizin-7a(5H)-yl)methoxy)pyrido [4,3-d]pyrimidin-7-yl)-5-ethynyl-6-fluoronaphthalen-2-amine] | 9.5 | 11.7 | 14.4 | 37.6 | 9.4 | 775 | 467 | 5.9 | 1880 | 298 | 48.6 | 2.9 | 
C#Cc1c(F)ccc2cc(O)cc(-c3ncc4c(N5CC6CCC(C5)N6)nc(OC[C@@]56CCCN5C[C@H](F)C6)nc4c3F)c12 [Positive Compound 1, reference compound] |  | 10.3 | 18.1 | 34.9 | 4.2 | 367 | 1130 |  | 40.2 | 20.6 | 2.2 |  | 
C#Cc1c(F)ccc2cc(N)cc(-c3ncc4c(N5C[C@H]6CC[C@@H](C5)N6)nc(OC[C@@]56CCCN5C/C(=C\F)C6)nc4c3F)c12 [Reference Compound 4, 4-(4-((1R,5S)-3,8-diazabicyclo [3.2.1]octan-3-yl)-8-fluoro-2-(((S,Z)-2-(fluoromethylene)tetrahydro-1H-pyrrolizin-7a(5H)-yl)methoxy)pyrido[4,3-d]pyrimidin-7-yl)-5-ethynyl-6-fluoronaphthalen-2-amine] |  |  |  |  |  |  |  |  |  |  |  |  | AUC (in vivo; iv, 2 mg/kg): 163 ng·h/mL; Cmax (in vivo; iv, 2 mg/kg): 104 ng/mL; half-life (in vivo; iv, 2 mg/kg): 8.4 h; AUC (in vivo; po, 10 mg/kg): 52.8 ng·h/mL; Cmax (in vivo; po, 10 mg/kg): 14.8 ng/mL; bioavailability (in vivo; po, 10 mg/kg): 6.5%; half-life (in vivo; po, 10 mg/kg): 4.6 h
